Data as given in article PMC12136037, “Type II kinase inhibitors that target Parkinson’s disease–associated LRRK2” (Science Advances, 2025).

Key:
Assay in all cases: DSF 100 kinase selectivity screen;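 also: compound tested at 20 µM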
Format in all cases: binding
[1] = biological target: T1, ~100 representative kinases (Homo sapiens, UniProt P53779); details: protein MAPK10; average of three replicates
T1 construct: Recombinant protein kinase domains with a concentration of 2 μM
Experimental: (§1) Recombinant protein kinase domains with a concentration of 2 μM were mixed with a 20 μM compound solution in dimethyl sulfoxide (DMSO), 20 mM Hepes (pH 7.5), and 500 mM NaCl. SYPRO Orange (5000×, Invitrogen) was added as a fluorescence probe (1μl/ml). Subsequently, temperature-dependent protein unfolding profiles were measured using the QuantStudio 5 realtime PCR machine (Thermo Fisher Scientific, Waltham, MA, USA). […] The temperature was raised with a step rate of 3°C/min. […] Differences in melting temperature are given as ΔTm values in degrees Celsius. […]

[2] = biological target: T2, ~100 representative kinases (Homo sapiens, UniProt Q16539); details: protein MAPK14; average of three replicates
T2 construct: Recombinant protein kinase domains with a concentration of 2 μM
Experimental: as §1

[3] = biological target: T3, ~100 representative kinases (Homo sapiens, UniProt Q99640); details: protein PKMYT1; average of three replicates
T3 construct: Recombinant protein kinase domains with a concentration of 2 μM
T3 sequence (Q99640 1-499): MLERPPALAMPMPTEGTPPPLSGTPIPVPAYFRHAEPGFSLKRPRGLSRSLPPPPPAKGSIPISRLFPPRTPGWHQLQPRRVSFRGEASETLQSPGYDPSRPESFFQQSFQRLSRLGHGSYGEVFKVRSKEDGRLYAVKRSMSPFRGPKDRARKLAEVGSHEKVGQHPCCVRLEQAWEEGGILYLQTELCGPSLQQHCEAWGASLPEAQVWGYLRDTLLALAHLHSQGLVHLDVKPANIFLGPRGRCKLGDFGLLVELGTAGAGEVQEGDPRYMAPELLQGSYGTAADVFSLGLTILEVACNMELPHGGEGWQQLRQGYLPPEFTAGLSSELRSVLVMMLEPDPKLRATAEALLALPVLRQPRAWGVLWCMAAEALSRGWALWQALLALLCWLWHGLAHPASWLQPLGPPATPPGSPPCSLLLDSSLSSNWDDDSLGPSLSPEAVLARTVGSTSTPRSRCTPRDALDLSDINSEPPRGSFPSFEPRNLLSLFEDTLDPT
Experimental: as §1

[4] = biological target: T4, ~100 representative kinases (Homo sapiens, UniProt Q99683); details: protein MAP3K5; average of three replicates
T4 construct: Recombinant protein kinase domains with a concentration of 2 μM
T4 sequence (Q99683 1-1374): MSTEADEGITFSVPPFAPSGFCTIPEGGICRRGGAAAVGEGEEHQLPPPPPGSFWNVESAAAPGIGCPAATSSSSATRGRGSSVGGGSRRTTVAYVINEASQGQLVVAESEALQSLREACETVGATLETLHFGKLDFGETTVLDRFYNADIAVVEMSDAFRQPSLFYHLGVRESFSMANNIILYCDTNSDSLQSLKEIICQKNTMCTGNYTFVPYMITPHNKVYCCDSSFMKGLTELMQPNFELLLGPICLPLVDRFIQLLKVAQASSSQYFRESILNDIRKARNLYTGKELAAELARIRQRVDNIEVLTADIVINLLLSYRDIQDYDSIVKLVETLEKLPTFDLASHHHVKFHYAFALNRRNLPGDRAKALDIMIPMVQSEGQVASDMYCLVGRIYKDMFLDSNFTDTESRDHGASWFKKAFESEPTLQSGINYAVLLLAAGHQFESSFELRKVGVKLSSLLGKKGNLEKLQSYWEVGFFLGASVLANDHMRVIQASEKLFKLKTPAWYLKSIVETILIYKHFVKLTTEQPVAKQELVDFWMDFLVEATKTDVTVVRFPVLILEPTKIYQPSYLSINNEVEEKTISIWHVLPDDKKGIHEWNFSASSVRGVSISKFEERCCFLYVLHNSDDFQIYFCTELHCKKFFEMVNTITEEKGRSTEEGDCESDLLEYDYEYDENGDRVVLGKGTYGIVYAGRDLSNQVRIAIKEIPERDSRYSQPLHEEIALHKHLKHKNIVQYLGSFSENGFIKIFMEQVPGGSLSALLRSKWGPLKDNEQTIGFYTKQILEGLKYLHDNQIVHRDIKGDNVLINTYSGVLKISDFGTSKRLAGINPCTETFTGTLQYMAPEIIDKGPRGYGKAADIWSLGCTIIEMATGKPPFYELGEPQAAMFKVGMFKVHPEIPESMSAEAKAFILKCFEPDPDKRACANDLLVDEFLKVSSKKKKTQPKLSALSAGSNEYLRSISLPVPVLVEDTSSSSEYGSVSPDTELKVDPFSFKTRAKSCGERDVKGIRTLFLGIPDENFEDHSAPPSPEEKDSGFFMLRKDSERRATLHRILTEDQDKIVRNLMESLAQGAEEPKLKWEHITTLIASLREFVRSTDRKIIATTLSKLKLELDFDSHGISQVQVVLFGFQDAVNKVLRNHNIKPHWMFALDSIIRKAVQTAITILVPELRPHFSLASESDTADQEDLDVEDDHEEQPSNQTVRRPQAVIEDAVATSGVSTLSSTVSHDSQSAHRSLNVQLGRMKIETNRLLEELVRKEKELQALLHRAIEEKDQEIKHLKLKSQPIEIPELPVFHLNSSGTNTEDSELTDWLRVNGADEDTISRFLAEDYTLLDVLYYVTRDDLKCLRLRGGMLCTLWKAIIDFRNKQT
Experimental: as §1

T1 sequence (P53779 whole entry, the tested form may be a part): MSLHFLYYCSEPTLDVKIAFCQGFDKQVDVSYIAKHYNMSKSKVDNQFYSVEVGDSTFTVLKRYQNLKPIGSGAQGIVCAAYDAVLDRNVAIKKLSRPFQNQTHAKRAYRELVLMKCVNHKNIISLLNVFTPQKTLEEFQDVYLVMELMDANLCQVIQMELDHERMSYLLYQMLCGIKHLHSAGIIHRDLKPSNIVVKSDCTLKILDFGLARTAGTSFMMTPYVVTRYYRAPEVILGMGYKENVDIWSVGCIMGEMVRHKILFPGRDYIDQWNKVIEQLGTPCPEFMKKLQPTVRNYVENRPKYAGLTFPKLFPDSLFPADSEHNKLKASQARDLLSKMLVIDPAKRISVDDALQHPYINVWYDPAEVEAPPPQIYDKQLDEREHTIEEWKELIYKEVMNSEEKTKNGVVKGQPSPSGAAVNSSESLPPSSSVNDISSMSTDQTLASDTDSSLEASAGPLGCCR
T2 sequence (Q16539 whole entry, the tested form may be a part): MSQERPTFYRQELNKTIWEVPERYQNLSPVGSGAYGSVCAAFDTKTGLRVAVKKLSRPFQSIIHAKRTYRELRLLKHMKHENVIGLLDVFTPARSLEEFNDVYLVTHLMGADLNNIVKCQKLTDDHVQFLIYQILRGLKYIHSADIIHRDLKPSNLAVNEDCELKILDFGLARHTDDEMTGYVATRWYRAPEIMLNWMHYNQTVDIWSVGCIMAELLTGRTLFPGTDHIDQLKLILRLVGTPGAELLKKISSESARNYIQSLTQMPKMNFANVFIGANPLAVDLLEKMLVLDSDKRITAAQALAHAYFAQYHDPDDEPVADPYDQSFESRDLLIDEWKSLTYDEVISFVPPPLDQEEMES

Structure (SMILES)	dTm [1] [K]	dTm [2] [K]	dTm [3] [K]	dTm [4] [K]
CCc1ccc(NC(=O)C2(C(=O)Nc3cccc(-c4c[nH]c5ncnc(N6CCOCC6)c45)c3)CC2)cc1 [Compound 15]	-0.66	0.36	0.54	1.27
Cc1ccc(-n2nc(C(C)(C)C)cc2NC(=O)Nc2cccc(-c3c[nH]c4nc(Cl)nc(N5CCOCC5)c34)c2)cc1 [Compound 30]	-0.06	2.81	-0.62	1.60
C[C@@H]1CN(c2cc(-c3n[nH]c4ccc(OC5(C)CC5)cc34)ncn2)C[C@H](C)O1 [MLi2]	0.0276	0.038	-0.55	3.65
CC(C)(C)c1cc(NC(=O)Nc2cccc(-c3c[nH]c4ncnc(N5CCOCC5)c34)c2)n(-c2ccc3ncccc3c2)n1 [Compound 28]	4.27	3.86	0.83	3.36
COc1cc(C(=O)N2CCOCC2)c(F)cc1Nc1nc(N(C)C)c2c(Cl)c[nH]c2n1 [Compound 36]	5.50	-0.75	-0.59	6.66

The remaining lines, values ahead:

dTm [1] [K]	dTm [2] [K]	dTm [3] [K]	dTm [4] [K]	Structure (SMILES)
0.65	-0.16	-0.09	0.46	COc1ccc(NC(=O)C2(C(=O)Nc3cccc(-c4c[nH]c5ncnc(N6CCOCC6)c45)c3)CC2)cc1 [Compound 16]
0.29	0.76	-0.64	2.37	COc1cc(NC(=O)C2(C(=O)Nc3cccc(-c4c[nH]c5ncnc(N6CCOCC6)c45)c3)CC2)ccc1F [Compound 21]
1.84	0.53	0.00857	3.32	O=C(Nc1cccc(-c2c[nH]c3ncnc(N4CCOCC4)c23)c1)C1(C(=O)Nc2ccc(F)c(F)c2)CC1 [Compound 17]
